≈ marks a conversion by molar mass, not a printed value. Where two headings read alike, the source gives them in different places.

In assay [1] the test system is Staphylococcus aureus PV 14. Kind of assay: In vitro antibacterial activity, MIC, broth microdilution. As to conditions: S. aureus PV 14, MHB, 37° C., 18 hours; for MIC: Staphylococcus aureus, PV14, read-out: minimum inhibiting concentration MIC. The assay is classed as cell-based. As to the method:
(§1) a) In vitro antibacterial activity The determination of the minimum inhibiting concentrations (MIC), with respect to Gram-positive and Gram-negative bacteria was carried out through the micromethod of gradual broth dilution in double series [National Committee for Clinical Laboratory Standards, 1990; Methods for dilution antimicrobial susceptibility tests for bacteria that grow aerobically; Approved standards […], Villanova, Pa.], by using Mueller Hinton Broth (MHB) as a culture medium. In the case of […] bacteria, horse serum at 5% (Streptococcus pneumoniae and Streptococcus pyogenes) was added to the medium. Roxithromycin and Clarithromycin [The Merck Index, XI Ed., No. 8253 and 2340, respectively] were used as reference macrolides. MIC, expressed as (μg/ml), were determined after incubation of the microplates at 37° C. for 18 hours, evaluating the lowest antibiotic concentration enabling the inhibition of bacterial development.

The test system of assay [2] is Streptococcus pyogenes C 203. Described as above. The assay is classed as cell-based. The following applies: S. pyogenes C 203, MHB + 5% horse serum, 37° C., 18 hours; for MIC: Streptococcus pyogenes, C203, read-out: minimum inhibiting concentration MIC. The protocol:
as §1

Assay [3] concerns Streptococcus pyogenes A 26. The description is as above. The assay is classed as cell-based. As to conditions: S. pyogenes A 26, MHB + 5% horse serum, 37° C., 18 hours; for MIC: Streptococcus pyogenes, A26, read-out: minimum inhibiting concentration MIC. The protocol: as §1
Assay [4] relates to Streptococcus pneumoniae BS 4. The description is as above. The class given is cell-based. The following applies: S. pneumoniae BS 4, MHB + 5% horse serum, 37° C., 18 hours; for MIC: Streptococcus pneumoniae, BS4, read-out: minimum inhibiting concentration MIC. As to the method:
as §1

Assay [5] concerns Escherichia coli ATCC 25922. The assay is described as above. The class given is cell-based. The following applies: E. coli ATCC 25922, MHB, 37° C., 18 hours; for MIC: Escherichia coli, ATCC25922, read-out: minimum inhibiting concentration MIC. The protocol:
as §1

Assay [6] deals with Enterococcus faecalis ATCC 29212. The description is as above. The assay is classed as cell-based. The following applies: E. faecalis ATCC 29212, MHB, 37° C., 18 hours; for MIC: Enterococcus faecalis, ATCC29212, read-out: minimum inhibiting concentration MIC. The protocol:
as §1

For assay [7], the system named is Streptococcus pneumoniae BS 3. The assay is described as above. The class given is cell-based. As to conditions: S. pneumoniae BS 3, MHB + 5% horse serum, 37° C., 18 hours; for MIC: Streptococcus pneumoniae, BS3, read-out: minimum inhibiting concentration MIC. As to the method:
as §1

The test system of assay [8] is Klebsiella pneumoniae ZC 2. The assay is described as above. The following applies: K. pneumoniae ZC 2, MHB, 37° C., 18 hours; for MIC: Klebsiella pneumoniae, ZC2, read-out: minimum inhibiting concentration MIC. The assay is classed as cell-based. As to the method: as §1
Assay [9] has as its system Streptococcus pyogenes C 203. Kind of assay: In vivo antibacterial activity, experimental pulmonary infection in mouse. As to conditions: for ED50: Streptococcus pyogenes, C203, ip, 240 h, intraperitoneal single dose, read-out: average protecting dose PD50. The protocol:
The in vivo antibacterial activity of the compounds of formula (I), expressed as average protecting dose PD50 (mg/Kg), was evaluated by means of experimental pulmonary infection induced in mouse by Streptococcus pyogenes (example 23).
b) In vivo antibacterial activity
The therapeutical effectiveness, expressed as average protecting dose (PD50), of the considered compounds of formula (I) was evaluated by experimental pulmonary infection induced in mouse by Streptococcus pyogenesC 203.
Charles River albin mice (strain CD 1), of body weight comprised between 23-35 g, stabulated in groups of 6 for cage and normo-feeded with standard diet and water ad libitum were used. A suspension of S. pyogenes C 203 (corresponding about to 10^8 UFC) in tryptose broth (0.05 ml) was intranasally administered to each mouse anesthesized with a mixture of ethyl ether and chloroform.
The compounds under examination were intraperitoneally administered as a single dose, in 0.2% Tween suspension, 24 hours before or 1 hour after the infection.
Mice mortality observation was prolonged up to 10 days from the infection.
PD50 calculation, expressed as (mg/Kg), was carried out through the analysis of probit.
In vivo antibacterial activity, expressed as average protecting dose PD50 (mg/Kg), 24 hours before and 1 hour after the experimental pulmonary infection induced in mouse by Streptococcus pyogenes C 203, of the compounds 4, 10, 16-19, 21, 23, 26-27, 29-30, 33-35 and 38 and of the reference compounds Roxithromycin and Clarithromycin.

Turning to `CC[C@H]1OC(=O)[C@H](C)[C@@H](O[C@H]2C[C@@](C)(OC)[C@@H](O)[C@H](C)O2)[C@H](C)[C@@H](O[C@@H]2O[C@H](C)C[C@H](N(C)C)[C@H]2O)[C@](C)(OC)C[C@@H](C)C(=O)[C@H](C)[C@@H](O)[C@]1(C)O` [Clarithromycin, reference compound], the MIC was determined as 0.25 µg/mL (≈ 0.334 µM) in assay [1]; 0.0078 µg/mL in assay [2]; 0.0078 µg/mL in assay [3]; 0.0156 µg/mL in assay [4]; 64 µg/mL (≈ 85.6 µM) in assay [5]; 1 µg/mL (≈ 1.34 µM) in [6]. Also, the MIC was determined as 0.0078 µg/mL in [7] and 128 µg/mL (≈ 171 µM) in assay [8]. Also, the values for the ED50 in [9] (1 hour after infection) and in [9] (24 hours before infection) were 3.25 mg/kg and > 50 mg/kg, respectively. Also, in assay [9] (administered 24 hours before the infection), the “in vivo activity, pulmonary infection (in words)” value was “inactive”.
As for `CC[C@H]1OC(=O)[C@H](C)[C@@H](O[C@H]2C[C@@](C)(OC)[C@@H](O)[C@H](C)O2)[C@H](C)[C@@H](O[C@@H]2O[C@H](C)C[C@H](N(C)C)[C@H]2O)[C@](C)(O)C[C@@H](C)/C(=N\OCCNCCCCCCNCc2ccccc2)[C@H](C)[C@@H](O)[C@]1(C)O` [Compound 4, Erythromycin A (E)-9-[0-[2-[6-(phenylmethylamino)hexylamino]ethyl]oxime]], the MIC in [1] is 0.25 µg/mL (≈ 0.255 µM); in assay [2] it was 0.0039 µg/mL; in assay [3], 0.0156 µg/mL; in assay [4] it was 0.0156 µg/mL; in [5], 4 µg/mL (≈ 4.08 µM); in assay [6], 4 µg/mL (≈ 4.08 µM). For the same compound, the figures for the MIC in assay [7] and in [8] were 0.0156 µg/mL and 16 µg/mL (≈ 16.3 µM), respectively. In addition, the ED50 in assay [9] (1 hour after infection) stood at 0.9 mg/kg; in [9] (24 hours before infection), 4.78 mg/kg.
`CC[C@H]1OC(=O)[C@H](C)[C@@H](O[C@H]2C[C@@](C)(OC)[C@@H](O)[C@H](C)O2)[C@H](C)[C@@H](O[C@@H]2O[C@H](C)C[C@H](N(C)C)[C@H]2O)[C@](C)(O)C[C@@H](C)/C(=N\OCCNCCCCCNCc2ccccc2)[C@H](C)[C@@H](O)[C@]1(C)O` [Compound 10, Erythromycin A (E)-9-[0-[2-[5-(phenylmethylamino)pentylamino]ethyl]oxime]]: the MIC is 0.5 µg/mL (≈ 0.517 µM) in assay [1]; 0.0039 µg/mL in assay [2]; 0.0078 µg/mL in [3]; 0.0156 µg/mL in [4]; 4 µg/mL (≈ 4.14 µM) in assay [5]; 4 µg/mL (≈ 4.14 µM) in [6]. Moreover, the MIC in assay [7] worked out at 0.0156 µg/mL; in assay [8], 16 µg/mL (≈ 16.5 µM). Further, the ED50 in [9] (1 hour after infection) was determined as 2.36 mg/kg; in assay [9] (24 hours before infection), 5.8 mg/kg.
`CC[C@H]1OC(=O)[C@H](C)[C@@H](O[C@H]2C[C@@](C)(OC)[C@@H](O)[C@H](C)O2)[C@H](C)[C@@H](O[C@@H]2O[C@H](C)C[C@H](N(C)C)[C@H]2O)[C@](C)(O)C[C@@H](C)/C(=N\OCCNCCCCCCNCc2ccc(F)cc2)[C@H](C)[C@@H](O)[C@]1(C)O` [Compound 16, Erythromycin A (E)-9-[0-[2-[6-[(4-fluorophenyl)methylamino]hexylamino]ethyl]oxime]]: the MIC in assay [1] was found to be 0.25 µg/mL (≈ 0.25 µM); in assay [2] it was 0.0039 µg/mL; in [3], 0.0156 µg/mL; in assay [4], 0.0156 µg/mL; in assay [5], 2 µg/mL (≈ 2 µM); in [6], 4 µg/mL (≈ 4 µM). Also, the results for the MIC in assay [7] and in [8] were 0.0156 µg/mL and 8 µg/mL (≈ 8.01 µM), respectively. Also, the ED50 was 3.6 mg/kg in assay [9] (1 hour after infection) and 10.2 mg/kg in assay [9] (24 hours before infection).
Take `CC[C@H]1OC(=O)[C@H](C)[C@@H](O[C@H]2C[C@@](C)(OC)[C@@H](O)[C@H](C)O2)[C@H](C)[C@@H](O[C@@H]2O[C@H](C)C[C@H](N(C)C)[C@H]2O)[C@](C)(O)C[C@@H](C)/C(=N\OCCNCCCCCCNCc2cc(Cl)cc(Cl)c2O)[C@H](C)[C@@H](O)[C@]1(C)O` [Compound 32, Erythromycin A (E)-9-[0-[2-[6-[(3,5-dichloro-2-hydroxyphenyl)methylamino]hexylamino]ethyl]oxime]]: the MIC in [1] stood at 0.5 µg/mL (≈ 0.469 µM); in assay [2], 0.0156 µg/mL; in assay [3], 0.0625 µg/mL; in [4], 0.0312 µg/mL; in assay [5] it was 4 µg/mL (≈ 3.75 µM); in assay [6] it was 2 µg/mL (≈ 1.88 µM). The MIC is 0.0625 µg/mL in assay [7] and 16 µg/mL (≈ 15 µM) in assay [8].
Take `CC[C@H]1OC(=O)[C@H](C)[C@@H](O[C@H]2C[C@@](C)(OC)[C@@H](O)[C@H](C)O2)[C@H](C)[C@@H](O[C@@H]2O[C@H](C)C[C@H](N(C)C)[C@H]2O)[C@](C)(O)C[C@@H](C)/C(=N\OCCNCCCCCCNCc2ccc(O)c([N+](=O)[O-])c2)[C@H](C)[C@@H](O)[C@]1(C)O` [Compound 36, Erythromycin A (E)-9-[0-[2-[6-[(4-hydroxy-3-nitrophenyl)methylamino]hexylamino]ethyl]oxime]]: the MIC in assay [1] is 0.5 µg/mL (≈ 0.48 µM); in assay [2], 0.0078 µg/mL; in [3] it was 0.0625 µg/mL; in assay [4], 0.0625 µg/mL; in [5], 8 µg/mL (≈ 7.68 µM); in assay [6], 16 µg/mL (≈ 15.4 µM). Also, the MIC in [7] amounted to 0.0625 µg/mL; in [8], 32 µg/mL (≈ 30.7 µM).
Consider `CC[C@H]1OC(=O)[C@H](C)[C@@H](O[C@H]2C[C@@](C)(OC)[C@@H](O)[C@H](C)O2)[C@H](C)[C@@H](O[C@@H]2O[C@H](C)C[C@H](N(C)C)[C@H]2O)[C@](C)(O)C[C@@H](C)/C(=N\OCCNCCCCCCNCc2ccc([N+](=O)[O-])c(O)c2)[C@H](C)[C@@H](O)[C@]1(C)O` [Compound 37, Erythromycin A (E)-9-[0-[2-[6-[(3-hydroxy-4-nitrophenyl)methylamino]hexylamino]ethyl]oxime]], for which the MIC in assay [1] worked out at 0.5 µg/mL (≈ 0.48 µM); in [2], 0.0039 µg/mL; in [3] it was 0.0312 µg/mL; in assay [4], 0.0312 µg/mL; in assay [5], 4 µg/mL (≈ 3.84 µM); in assay [6] it was 8 µg/mL (≈ 7.68 µM). Further, the MIC in [7] is 0.0312 µg/mL; in assay [8], 16 µg/mL (≈ 15.4 µM).
For the compound “Erythromycin A (E)-9-[0-[2-[N-ethyl-6-[N'-ethyl-N'-(2-phenylethyl)amino]hexylamino]hexyl])oxime] [Compound 2]”, the “minimum inhibiting concentration MIC” value is 1 µg/mL in [1]; 0.0312 µg/mL in assay [2]; 0.0156 µg/mL in assay [3]; 0.0312 µg/mL in [4]; 16 µg/mL in assay [5]; 8 µg/mL in assay [6]. Moreover, the “minimum inhibiting concentration MIC” value worked out at 0.0156 µg/mL in assay [7] and 64 µg/mL in [8].

For the origin of these results see patent publication US5847092A (Zambon Group S.p.A., priority 1994, dated 1998).
